Like-named read-outs stand apart in the source and are kept apart here.
How the values were obtained:
[1] = test system: CBD metabolism in human liver microsomes; experiment: Example 1: inhibition of CBD metabolism in pooled human liver microsomes; details: for Inhibition of CBD metabolism (in words): human liver microsomes; for IC50: read-out: HLM CYP inhibition IC50, substrate CBD, pooled HLM 0.1 mg/mL, CBD 1.64 μM, 15 minutes, n = 1
[2] = test system: Maximum Electroconvulsive Shock (MES) model; details: MES model in mouse; cited from earlier work
[3] = cited from earlier work
[4] = test system: CBD metabolism in human liver microsomes (CYP3A4 and CYP2C19); experiment: in vitro
[5] = cited from earlier work; remark: listed apart in the source
[6] = Clinical pharmacokinetics (literature data); details: human, in vivo, oral
CYP2D6 = CYP2D6 (Homo sapiens, UniProt P10635); experiment: biochemical
Chain of CYP2D6 (P10635 whole entry): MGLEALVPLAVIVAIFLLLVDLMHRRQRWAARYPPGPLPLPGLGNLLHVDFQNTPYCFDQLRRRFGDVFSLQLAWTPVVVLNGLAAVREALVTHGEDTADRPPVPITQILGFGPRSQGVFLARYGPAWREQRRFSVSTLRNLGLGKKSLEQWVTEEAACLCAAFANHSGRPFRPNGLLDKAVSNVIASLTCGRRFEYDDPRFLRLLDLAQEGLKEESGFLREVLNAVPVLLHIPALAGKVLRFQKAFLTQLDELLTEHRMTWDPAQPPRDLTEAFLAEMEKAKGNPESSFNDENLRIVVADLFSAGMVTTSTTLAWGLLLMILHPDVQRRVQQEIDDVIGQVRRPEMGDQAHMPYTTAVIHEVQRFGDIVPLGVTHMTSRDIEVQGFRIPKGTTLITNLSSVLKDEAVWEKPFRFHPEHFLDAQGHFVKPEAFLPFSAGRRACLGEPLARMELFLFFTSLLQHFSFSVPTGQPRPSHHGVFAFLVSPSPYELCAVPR
Procedure: Incubation mixtures were prepared with the following:
(a) potassium phosphate buffer;
(b) 0.1 mg/mL microsomal protein;
(c) isoform-specific probe substrates;
(d) specific concentrations of the test compounds, blank solvent, or positive controls (isoform-specific inhibitors); and
(e) an NADPH-regenerating cofactor solution.
Upon completion of the incubation, the reactions were quenched with an acetonitrile solution containing an internal standard. The samples were processed and analyzed by LC-MS/MS to monitor for substrate metabolite formation. The enzyme activity in the presence of the compounds were normalized with the enzyme activity in the absence of the compounds and expressed as a percentage of activity. The inhibitory potential (IC50) of the compounds were determined using nonlinear regression of percentage of activity versus compound concentration.

CYP2C19 [7] = biological target: T1, CYP2C19 (Homo sapiens, UniProt P33261)
T1 sequence (P33261 whole entry): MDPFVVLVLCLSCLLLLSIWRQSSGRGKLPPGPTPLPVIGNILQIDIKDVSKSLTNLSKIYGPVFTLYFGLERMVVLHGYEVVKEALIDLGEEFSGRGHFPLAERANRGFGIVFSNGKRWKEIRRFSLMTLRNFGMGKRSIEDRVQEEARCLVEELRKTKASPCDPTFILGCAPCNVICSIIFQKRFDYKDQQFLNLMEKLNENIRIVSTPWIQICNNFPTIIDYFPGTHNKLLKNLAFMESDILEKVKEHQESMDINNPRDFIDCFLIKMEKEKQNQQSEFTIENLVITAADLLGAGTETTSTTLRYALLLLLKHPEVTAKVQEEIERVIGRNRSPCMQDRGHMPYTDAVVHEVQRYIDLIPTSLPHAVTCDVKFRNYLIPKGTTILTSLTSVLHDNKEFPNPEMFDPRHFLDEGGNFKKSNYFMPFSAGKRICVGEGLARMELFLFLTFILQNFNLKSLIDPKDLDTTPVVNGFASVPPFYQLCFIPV

CYP1A2 = biological target: T2, CYP1A2 (Homo sapiens, UniProt P05177); details: cited from earlier work
T2 sequence (P05177 1-516): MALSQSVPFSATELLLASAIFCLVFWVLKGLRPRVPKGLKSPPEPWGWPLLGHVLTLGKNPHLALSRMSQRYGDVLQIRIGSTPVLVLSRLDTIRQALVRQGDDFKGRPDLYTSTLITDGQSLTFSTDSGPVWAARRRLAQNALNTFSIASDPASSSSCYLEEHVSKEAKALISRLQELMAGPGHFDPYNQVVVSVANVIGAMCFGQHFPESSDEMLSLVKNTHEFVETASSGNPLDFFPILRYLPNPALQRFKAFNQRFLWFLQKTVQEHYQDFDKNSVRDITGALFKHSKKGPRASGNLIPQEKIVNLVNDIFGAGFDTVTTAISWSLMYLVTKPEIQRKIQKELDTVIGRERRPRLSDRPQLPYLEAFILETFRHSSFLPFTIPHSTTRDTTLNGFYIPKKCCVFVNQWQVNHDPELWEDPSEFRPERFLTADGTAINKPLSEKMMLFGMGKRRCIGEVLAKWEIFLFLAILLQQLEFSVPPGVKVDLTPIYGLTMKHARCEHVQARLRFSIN

CYP2C19 [8] = biological target: T1, CYP2C19; details: cited from earlier work
CYP2C8 = biological target: T3, CYP2C8 (Homo sapiens, UniProt P10632); details: cited from earlier work
T3 sequence (P10632 1-490): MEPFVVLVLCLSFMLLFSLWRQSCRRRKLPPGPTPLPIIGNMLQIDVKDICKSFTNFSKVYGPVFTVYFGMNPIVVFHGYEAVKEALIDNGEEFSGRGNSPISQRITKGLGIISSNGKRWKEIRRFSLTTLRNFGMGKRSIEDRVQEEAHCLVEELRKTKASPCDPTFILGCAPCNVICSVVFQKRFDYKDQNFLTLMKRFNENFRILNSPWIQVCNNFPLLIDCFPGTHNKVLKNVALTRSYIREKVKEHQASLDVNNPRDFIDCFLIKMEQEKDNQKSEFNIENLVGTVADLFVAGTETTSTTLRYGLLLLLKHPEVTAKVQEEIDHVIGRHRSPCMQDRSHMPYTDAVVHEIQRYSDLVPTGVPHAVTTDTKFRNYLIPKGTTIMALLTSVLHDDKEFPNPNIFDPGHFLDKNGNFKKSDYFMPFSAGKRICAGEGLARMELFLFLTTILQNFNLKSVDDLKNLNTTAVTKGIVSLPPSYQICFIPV

For `C/C(=C\COc1c2ccoc2cc2oc(=O)ccc12)CCC(O)C(C)(C)O` (stereo not drawn) [6,7-dihydroxybergamottin], the “Inhibition of CBD metabolism (in words)” value [1] was “effective inhibitors of CBD metabolism” and the IC50 [1] was 23.3 µM.
For `C=C(C)[C@@H]1CCC(C(=O)O)=C[C@H]1c1c(O)cc(CCCCC)cc1O` [7-COOH-CBD], the Anticonvulsant effect [2] is given as “inactive”, the “Concentration of metabolite relative to CBD” value ([3]; after 1500 mg CBD dose) is given as 47 fold and the “Share of the total drug material measured in systemic circulation” value ([3]; after 1500 mg CBD dose) is given as 97%.
In the case of `C=C(C)[C@@H]1CCC(CO)=C[C@H]1c1c(O)cc(CCCCC)cc1O` [7-OH-CBD], the Anticonvulsant effect [2] is given as “anticonvulsant effect similar to CBD”.
In the case of `CC(C)=CCC/C(C)=C/COc1c2ccoc2cc2oc(=O)ccc12` [Bergamottin], the IC50 at 15 min [4] is reported as over 33 µM.
For `C=C(C)[C@@H]1CCC(C)=C[C@H]1c1c(O)cc(CCCCC)cc1O` [CBD, cannabidiol], the “Share of the total drug material measured in systemic circulation” value ([3]; after 1500 mg CBD dose) is listed as 2%, the “CBD AUC” value ([3]; single dose 200 mg) is listed as 499 ng·h/mL and the “CBD AUC” value ([3]; single dose 750 mg) is listed as 1070 ng·h/mL. The “CBD AUC” value ([3]; single dose 1500 mg) was 1444 ng·h/mL, the “CBD AUC” value ([3]; single dose 3000 mg) was 2669 ng·h/mL and the “CBD AUC” value ([3]; single dose 4500 mg) was 3215 ng·h/mL. For the same compound, the “CBD AUC” value ([3]; single dose 6000 mg) was 3696 ng·h/mL, the “Log P (partition coefficient)” value [5] was 6.1 and the bioavailability ([6]; 200 mg) was 100%. It also gave a bioavailability ([6]; 750 mg) of 57%, a bioavailability ([6]; 1500 mg) of 39% and a bioavailability ([6]; 3000 mg) of 36%. For the same compound, the bioavailability ([6]; 4500 mg) was 29% and the bioavailability ([6]; 6000 mg) was 25%.
With `CC(C)c1nc(CN(C)C(=O)N[C@@H](CCN2CCOCC2)C(=O)N[C@H](CC[C@H](Cc2ccccc2)NC(=O)OCc2cncs2)Cc2ccccc2)cs1` [Cobicistat] the IC50 (CYP2D6) was 479 nM, the “Inhibition of CBD metabolism (in words)” value [1] was “strong inhibitor of CBD metabolism” and the IC50 (CYP2C19 [7]) was 331 nM. The IC50 (CYP1A2) was over 25 µM, the IC50 (CYP2C19 [8]) was over 25 µM and the IC50 (CYP2C8) was over 25 µM.
For `CNCCC(Oc1ccc(C(F)(F)F)cc1)c1ccccc1` (stereo not drawn) [Fluoxetine], the “Inhibition of CBD metabolism (in words)” value [1] was “unable to inhibit metabolism of CBD” and the IC50 at 15 min [4] was over 33 µM.
With `Cc1c(OCC(F)(F)F)ccnc1C[S+]([O-])c1nc2ccccc2[nH]1` (stereo not drawn) [Lansoprazole] the “Inhibition of CBD metabolism (in words)” value [1] was “effective inhibitors of CBD metabolism” and the IC50 at 15 min [4] was 20 µM.
In the case of `COc1ccc2[nH]c(S(=O)(=O)Cc3ncc(C)c(OC)c3C)nc2c1` [Omeprazole Sulphone], the IC50 [1] is reported as over 33 µM.
With `COc1ccc2[nH]c([S+]([O-])Cc3ncc(C)c(OC)c3C)nc2c1` (stereo not drawn) [Omeprazole] the IC50 at 15 min [4] was over 33 µM.

Source: US20220401383A1 (SHINKEI THERAPEUTICS, INC., priority 2019, published 2022)
